Results taken from patent US9266820B2, “Nitric oxide donor compounds” (NICOX S.A., priority 2007, dated 2016).
Structures can show the parent of a compound that is named as a salt. Where two headings read alike, the source gives them in different places.

Test system: isolated rabbit thoracic aorta preparations
Assay: vasorelaxant activity in isolated rabbit thoracic aorta preparations precontracted with noradrenaline
Assay type: cell-based
Conditions: read-out: IC50 (μM) ± sem
Description: The ability of the compounds of the present invention to release nitric oxide was assessed testing their vasorelaxant activity in isolated rabbit thoracic aorta preparations (Wanstall J. C. et al., Br. J. Pharmacol., 134:463-472, 2001).
Male New Zealand rabbits were anaesthetized with thiopental-Na (50 mg/kg, iv), sacrificed by exsanguinations and then the thorax was opened and the aorta dissected. Single ring preparations (4 mm in length) of thoracic aorta were set up in physiological salt solution (PSS) at 37° C. in small organ chambers (5 ml). The composition of PSS was (mM): NaCl 130, NaHCO3 14.9, KH2PO4 1.2, MgSO4 1.2, HEPES 10, CaCl2, ascorbic acid […] and glucose 1.1 (95%)2/5% CO2; pH 7.4). Each ring was mounted under 2 g passive tension in 5 ml organ bath. Isometric tension was recorded with a Grass transducer (Grass FT03) attached to a BIOPAC MP150 System. Preparations were allowed to equilibrate for 1 h, then contracted submaximally with noradrenaline (NA, 1 μM) and, when the contraction was stable, acetylcholine (ACh, 10 μM) was added. A relaxant response to ACh indicated the presence of a functional endothelium. When a stable precontraction was reached, a cumulative concentration-response curve to either of the vasorelaxant agents was obtained in the presence of a functional endothelium. Time intervals between different concentrations were based on the time needed to reach a full response.
Moreover, the nitric oxide-dependent vascular relaxation elicited by the tested compounds was examined preincubating the aortic rings with the soluble guanylyl cyclase inhibitor ODQ (1H-(1,2,4)-oxadiazol(4,3-a)quinoxalin-1-one) at 10 μM for 20 min. Responses to vasorelaxing agents were measured from the plateau of NA contraction. The IC50 (concentration giving 50% reversal of NA contraction) was interpolated from the plots of relaxant-response vs log molar concentration of tested compound.
During the experimental period, the plateau obtained with NA was stable without significant spontaneous loss of contraction in the aortic rings.

[1] = Oryctolagus cuniculus, concentration giving 50% reversal of NA (1 μM) contraction, aortic rings with functional endothelium
[2] = concentration giving 50% reversal of NA (1 μM) contraction, aortic rings with functional endothelium

SMILES | IC50 [1] [µM] | other results
CC(C)(C)OC(=O)N1CCCC1C(=O)OCc1ccc(CO[N+](=O)[O-])cc1 (stereo not drawn) [Compound 7, 1-tert-Butyl 2-(4-(nitrooxymethyl)benzyl)pyrrolidine-1,2-dicarboxylate] | 2.4 ± 0.5 | 
CC(C)(C)OC(=O)N1CCCC1C(=O)Oc1cccc(CO[N+](=O)[O-])c1 (stereo not drawn) [Compound 8] |  | IC50 [2]: 2.6 ± 0.6 µM
CC(C)(C)OC(=O)N1CCCC1C(=O)OCCOCCO[N+](=O)[O-] (stereo not drawn) [Compound 9] |  | IC50 [2]: 4.5 ± 1.4 µM
CC(C)(C)OC(=O)NCC(=O)NCCCCO[N+](=O)[O-] [Compound 12, tert-butyl 2-(4-(nitrooxy)butylamino)-2-oxoethylcarbamate] | 10.2 ± 4.2 | 
CC(C)(C)OC(=O)NC(CCc1ccccc1)C(=O)OCc1ccc(CO[N+](=O)[O-])cc1 (stereo not drawn) [Compound 13, 4-[(Nitrooxy)methyl]benzyl 2-(tert-butoxycarbonylamino)-4-phenylbutanoate] | 10.2 ± 0.5 | 
CC(C)(C)OC(=O)N[C@@H](Cc1ccccc1)C(=O)OCCCCO[N+](=O)[O-] [Compound 15, (S)-4-(nitrooxy)butyl 2-(tert-butoxycarbonylamino)-3-phenylpropanoate] | 12.6 ± 6.4 | 
CC(C)(C)OC(=O)NC(CCc1ccccc1)C(=O)Oc1cccc(CO[N+](=O)[O-])c1 (stereo not drawn) [Compound 86, 3-[(Nitrooxy)methyl]phenyl 2-(tert-butoxycarbonylamino)-4-phenylbutanoate] | 5.2 ± 0.9 | 
CC(C)(C)OC(=O)NCC(=O)OCc1ccc(CO[N+](=O)[O-])cc1 [Compound 87, 4-[(nitrooxy)methyl]benzyl 2-(tert-butoxycarbonylamino)acetate] | 2.1 ± 0.4 | 
CC(C)(C)OC(=O)N[C@@H](Cc1ccccc1)C(=O)OCCCC[C@H](CO[N+](=O)[O-])O[N+](=O)[O-] [Compound 123] |  | IC50 (Oryctolagus cuniculus): 0.64 ± 0.14 µM
NC(COC(=O)OCCCCO[N+](=O)[O-])C(=O)O (stereo not drawn) [Compound 407, 2-amino-3-((4-(nitrooxy)butoxy)carbonyloxy)propanoic acid hydrochloride] |  | IC50 (Oryctolagus cuniculus): 16 ± 6.4 µM
CC(C)(C)OC(=O)NCCOC(=O)CCCO[N+](=O)[O-] [Compound 508, 2-(tert-butoxycarbonylamino)ethyl 4-(nitrooxy)butanoate] | 4.4 ± 0.7 | 
CC(C)(C)OC(=O)N[C@H](COC(=O)CCCO[N+](=O)[O-])Cc1ccccc1 [Compound 511, (S)-2-(tert-butoxycarbonylamino)-3-phenylpropyl 4-(nitrooxy)butanoate] | 9.5 ± 3.6 | 
CC(C)(C)OC(=O)N1CCCC1C(=O)OCCCCO[N+](=O)[O-] (stereo not drawn) [Example 14, 1-tert-butyl 2-(4-(nitrooxy)butyl)pyrrolidine-1,2-dicarboxylate] | 1.9 ± 0.4 | 
CC(C)(C)OC(=O)N1CCCC1C(=O)OCCCO[N+](=O)[O-] (stereo not drawn) [Example 15, 1-tert-butyl 2-(3-(nitrooxy)propyl)pyrrolidine-1,2-dicarboxylate] | 1.2 ± 0.33 | 
CC(C)(C)OC(=O)NC(CCc1ccccc1)C(=O)OCCOCCO[N+](=O)[O-] (stereo not drawn) [Example 21, 2-(2-(Nitrooxy)ethoxy)ethyl 2-(tert-butoxycarbonylamino)-4-phenylbutanoate] | 8 ± 1.8 | 
